pKi: −log10 of the molar value.
Tests used:
Format in all cases: biochemical
[1] = biological target: T1, human opioid receptor-like receptor (ORL-1) (Homo sapiens, UniProt P41146); details: read-out: Nociceptin Affinity calc Ki
T1 construct: host or cells: HEK-293

Mu opioid receptor = Mu opioid receptor (Homo sapiens, UniProt P35372); details: read-out: calc Ki (nM) μ
kappa opioid receptor = kappa opioid receptor (Homo sapiens, UniProt P41145); details: read-out: calc Ki (nM) k
delta opioid receptor = delta opioid receptor (Homo sapiens, UniProt P41143); details: read-out: calc Ki (nM) δ2
delta opioid receptor, sequence (P41143 whole entry): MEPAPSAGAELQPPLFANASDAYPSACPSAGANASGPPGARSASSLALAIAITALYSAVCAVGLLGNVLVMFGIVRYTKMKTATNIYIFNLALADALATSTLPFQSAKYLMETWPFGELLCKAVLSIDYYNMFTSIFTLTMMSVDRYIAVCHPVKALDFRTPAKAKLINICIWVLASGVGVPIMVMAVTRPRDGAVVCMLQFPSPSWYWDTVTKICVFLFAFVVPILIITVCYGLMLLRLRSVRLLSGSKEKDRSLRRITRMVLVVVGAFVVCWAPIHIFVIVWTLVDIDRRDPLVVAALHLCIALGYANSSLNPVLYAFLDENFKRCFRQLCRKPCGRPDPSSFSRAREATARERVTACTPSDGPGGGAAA

T1 sequence (P41146 whole entry): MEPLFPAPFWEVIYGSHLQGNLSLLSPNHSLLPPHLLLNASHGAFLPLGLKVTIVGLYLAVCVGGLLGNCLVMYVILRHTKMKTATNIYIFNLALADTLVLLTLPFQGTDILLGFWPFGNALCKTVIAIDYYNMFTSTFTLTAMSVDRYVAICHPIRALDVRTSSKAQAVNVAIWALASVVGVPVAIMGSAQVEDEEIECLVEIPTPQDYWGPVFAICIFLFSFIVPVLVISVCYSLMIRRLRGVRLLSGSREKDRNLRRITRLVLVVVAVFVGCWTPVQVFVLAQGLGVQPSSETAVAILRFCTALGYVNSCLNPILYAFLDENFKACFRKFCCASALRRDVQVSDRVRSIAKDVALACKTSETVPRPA
Mu opioid receptor, sequence (P35372 whole entry): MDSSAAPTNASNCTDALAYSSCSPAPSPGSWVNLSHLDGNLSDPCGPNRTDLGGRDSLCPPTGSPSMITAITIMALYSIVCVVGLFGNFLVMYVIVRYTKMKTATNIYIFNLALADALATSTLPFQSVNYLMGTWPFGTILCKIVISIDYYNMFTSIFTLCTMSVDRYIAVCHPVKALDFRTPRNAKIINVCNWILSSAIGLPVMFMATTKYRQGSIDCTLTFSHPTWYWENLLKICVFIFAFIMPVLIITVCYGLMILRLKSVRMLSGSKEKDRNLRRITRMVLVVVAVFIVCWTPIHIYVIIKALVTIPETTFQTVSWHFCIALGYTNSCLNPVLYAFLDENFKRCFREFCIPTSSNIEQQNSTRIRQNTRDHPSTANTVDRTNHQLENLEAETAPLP
kappa opioid receptor, sequence (P41145 whole entry): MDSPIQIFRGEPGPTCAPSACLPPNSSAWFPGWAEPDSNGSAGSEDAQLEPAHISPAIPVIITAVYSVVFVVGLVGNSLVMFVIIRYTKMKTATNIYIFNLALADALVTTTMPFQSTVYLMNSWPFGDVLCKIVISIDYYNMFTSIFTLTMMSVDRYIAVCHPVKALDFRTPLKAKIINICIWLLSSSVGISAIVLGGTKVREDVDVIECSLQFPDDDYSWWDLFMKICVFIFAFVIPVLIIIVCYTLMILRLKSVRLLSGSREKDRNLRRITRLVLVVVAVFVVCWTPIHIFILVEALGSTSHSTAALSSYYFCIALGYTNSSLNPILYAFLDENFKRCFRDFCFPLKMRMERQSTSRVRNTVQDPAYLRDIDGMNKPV

Compound | pKi [1] | Ki (Mu opioid receptor) | Ki (kappa opioid receptor) | Ki (delta opioid receptor)
1-[4-(4-propyl-1,2-cyclohexene)-4-piperidinyl]-1,3-dihydro-2H-1,3-benzamidazol-2-one | 6.33 | 265 nM | 1500 nM | 1220 nM
1-[4-(4-propylcyclohexane)-4-piperidinyl]-3-[1-oxo-ethyl]-1,3-dihydro-2H-1,3-benzamidazol-2-one | 6.33 | 23.2 nM | 1600 nM | > 10000 nM
O=c1[nH]c2ccccc2n1C1CCN(CCCC(c2ccc(F)cc2)c2ccc(F)cc2)CC1 [1-[4-(4,4-difluorophenylbutyl)-4-piperidinyl]-1,3-dihydro-2H-1,3-benzamidazol-2-one] | 6.38 | – | – | –

From patent US7678809B2 (priority 1999, dated 2010)
